Tested on: aortic vasa vasorum neovasculature
Assay: MRI signal enhancement of aortic vasa vasorum neovasculature in cholesterol-fed rabbits (Example 1, FIG. 1)
Type: in vivo
Conditions: weeks 2 to 8; atorvastatin in high-cholesterol chow, 44 mg/kg feed
Method: Cholesterol-fed rabbits received αvβ3-targeted paramagnetic nanoparticles (NP) with (n=9) or without (n=9) fumagillin (30 μg/kg body weight) at weeks 0 and 4. A portion of the animals (n=4 per group) was treated with atorvastatin included in the high-cholesterol chow (44 mg/kg feed). Assessment of antiangiogenic response was evaluated at weeks 2, 4, 6 and 8 using αvβ3-targeted paramagnetic NP lacking the drug. MRI signal enhancement from the aortic vasa vasorum neovasculature was calculated from transverse black-blood MR images (1.5 T) collected before and 4 hours post NP injection (1 ml/kg body weight). The MRI enhancement observed at each timepoint was normalized with respect to the enhancement measured at week 0.

In the case of `CC(C)c1c(C(=O)Nc2ccccc2)c(-c2ccccc2)c(-c2ccc(F)cc2)n1CC[C@@H](O)C[C@@H](O)CC(=O)O` [atorvastatin], the “MRI enhancement in the thoracic aorta, normalized to week 0, time course” value is reported as “slow decrease in enhancement”.

Source: patent publication US20080138288A1, “COMBINATIONS FOR TREATMENT OF NEOVASCULATURE” (Washington University, priority 2006, published 2008)
